From patent US11739318B1, “Modified biosensors and biocatalysts and methods of use” (priority 2017, dated 2023)

Key:
PobR-DM [1] = settings: protocatechuate only at 1000-fold greater concentration than 4HB; cited from earlier work
PcaU1.2 = test: Specificity evaluation of PcaU1.2 sensor against similar aromatic molecules; assay type: cell-based, P. putida; settings: relative to PCA response
Method: For specificity evaluation of the biosensor, PcaU1.2 was tested against molecules with similar functional groups, namely benzoate, 4-hydroxybenzoate (4HB), and catechol. The tested molecules were relatively smaller than PCA, to eliminate any rejection of the molecule from the binding pocket due to steric hindrance.

PobR-DM [2] = test: Whole cell biosensing of 4HB and benzoate with PobR-DM sensor plasmid; assay type: cell-based; settings: P. putida with pPobR
Method: Whole cell biosensing of 4HB and benzoate: For 4HB sensing activity of the whole cell biosensor, a small scoop of pPobR transformed P. putida cells from a streaked plate or a glycerol stock was grown overnight as a seed culture. The overnight saturated seed culture was then diluted 100-fold in fresh growth medium, grown for 5-6 h at 30° C. to achieve an OD600 of ˜0.6, then distributed in deep 96-well blocks in a volume of 300-500 μL and induced with varying concentrations of 4HB or benzoate. The cultures were grown overnight (14-16 h) under vigorous shaking in a deep-well shaker (Taitec BioShakerM-BR-022UP). The cultures were diluted 100-fold in phosphate-buffered saline (PBS) with 1% sucrose and analyzed using an LSR II flow cytometer (BD Biosciences) or Accuri C6 flow cytometer (BD Biosciences) with standard settings for measurement of GFP fluorescence (ex 488 nm, em ˜530/30 nm). The arithmetic mean fluorescence value of ˜100,000 cells tightly gated based on forward and side scatter (FSC vs SSC) was used for a dose-response plot. Same protocol was followed for comparison of UbiC clones.

UbiC = UbiC (Escherichia coli, UniProt P26602); settings: cited from earlier work
Chain of UbiC (P26602 whole entry): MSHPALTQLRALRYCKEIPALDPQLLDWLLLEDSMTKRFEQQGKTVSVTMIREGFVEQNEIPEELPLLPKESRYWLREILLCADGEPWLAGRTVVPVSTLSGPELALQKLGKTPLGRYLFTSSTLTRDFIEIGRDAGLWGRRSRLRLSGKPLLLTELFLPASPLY

Compound | response of the PobR-DM sensor in E. coli (PobR-DM [1]) | activation of the PcaU1.2 sensor (PcaU1.2) | also measured
O=C(O)c1ccc(O)c(O)c1 [protocatechuate, 3,4-dihydroxybenzoate] | very weakly responds |  | 
O=[N+]([O-])c1ccc(O)cc1 [p-nitrophenol] | does not respond |  | 
O=C(O)c1ccccc1 [benzoate] |  | Low but measurable activation | response of the whole cell 4HB biosensor (PobR-DM [2]): did not show any response; Ki (UbiC; inhibitor of UbiC): > 3 mM; affinity weaker / Kp higher than 4HB (UbiC; product inhibition of UbiC): 1000 fold
O=C(O)c1ccc(O)cc1 [4HB, 4-hydroxybenzoic acid] |  | Low but measurable activation | 
Oc1ccccc1O [catechol] |  | a signal that was an appreciable fraction of PCA response | 
